Data published in patent US10927075B2, “Compositions and methods relating to the treatment of cancer, autoimmune disease, and neurodegenerative disease” (THE JACKSON LABORATORY, priority 2014, dated 2021).

Tests used:
[1] = tested on: AID-expressing mouse B-lymphocytes
[2] = tested on: primary splenic B-cells from WT (AID-expressing) mice; conditions: Ishida et al., 2009; Lamont et al., 2013; cited from earlier work
[3] = tested on: Primary mouse B cells (WT); experiment: Micronuclei assay; type: cell-based; conditions: all genotypes tested (WT, AID−/−, and p53−/−), 5 μg/mL, 3 d
[4] = tested on: MEC-1 cells; experiment: Micronuclei assay; type: cell-based, human; conditions: cyclophosphamide treatment
[5] = Pharmacokinetics after single intravenous injection or oral gavage; type: in vivo, Sprague Dawley rats
Protocol: C-1523-1A was formulated in PBS with 5% DMSO and given via single intravenous injection (1 milligram per kilogram) or by oral gavage to Sprague Dawley rats (2 milligrams per kilogram). Plasma concentrations were measure by mass spectrometry at t=15 min, t=30 min, t=1 hr, t=2 hr, t=4 hr, and t=8 hr for the intravenous cohort and at t=1 hr, t-2 hr, t-3 hr, t-4 hr, t-5 hr, t-6 hr. […] Oral availability is 2-3% (FIG. 3).

[6] = Plasma concentration after administration of 2, 10, or 20 milligrams per kilogram; type: in vivo, Sprague Dawley rats; conditions: Sprague Dawley, rat, 20 mg/kg dosing
Protocol: Pharmacokinetic measurements of DIDS, C-1523, and C-1523-1a following oral and intravenous administration to Sprague Dawly rats were made (FIGS. 4-6) and the plasma concentration of C-1523-1a at t=15 min, t=30 min, t=1 hr, t=2 hr, t=8 hr, and t=24 hr following administration of 2, 10, or 20 milligrams per kilogram to Sprague Dawley rats was determined (FIG. 7).
(§1) The effects of C-1523 have been tested in vitro in cultured cancer cells and in vivo with human cell samples. Preclinical pharmacokinetic analyses were conducted to determine the fate of the compound as it is administered.

[7] = tested on: Primary splenic B-cells from AID-expressing mice; experiment: Cell viability of primary splenic B-cells, AID-expressing versus AID-negative mice; type: cell-based; conditions: compared to primary splenic B-cells in AID-negative mice
Source text: Primary splenic B-cells from AID-expressing mice were exposed to C-1523-1a and the BTK inhibitor ibrutinib and cell viability was compared to primary splenic B-cells in AID-negative mice (FIG. 9).

[8] = tested on: primary B-cells (AID+); experiment: Dose response in primary B-cells (AID+); type: cell-based; conditions: FIG. 10
Protocol: Dose responses for C-1523 (blue) and C-1523-1a (red) in primary B-cells (AID+) was determined (FIG. 10).

[9] = tested on: non-Hodgkin's lymphoma model; experiment: Non-Hodgkin's lymphoma model; conditions: in vivo
Protocol: as §1

[10] = tested on: Primary AID-expressing B-cells; experiment: Cell survival analysis; type: cell-based; conditions: 100 nM versus vehicle (DMSO)
Protocol: FIG. 27 depicts a graph of cell survival analysis of primary AID-expressing B-cells treated with C-1523-1AD4 (100 nM) versus vehicle (DMSO).
Primary AID-expressing B-cells were sensitive to C-1523-1AD4 (FIG. 27).

Compound: O=S(=O)(O)c1cc(N=C=S)ccc1C=Cc1ccc(N=C=S)cc1S(=O)(=O)O [DIDS, 4,4′-diisothiocyanatostilbene-2,2′-disulfonic acid, reference compound]
- concentration eliciting AID-specific cytotoxicity [1]: 150 µM
- cell death [2]: induces cell death in primary B-lymphocytes

Compound: O=P1(N(CCCl)CCCl)NCCCO1 (stereo not drawn) [cyclophosphamide, reference compound]
- micronuclei [3]: approximately 9%
- micronuclei relative to primary cells [4]: approximately half as much micronuclei as primary cells

Compound: CC(=O)Nc1ccc(/C=C/c2ccc(NC(=S)NC(C)C)cc2S(N)(=O)=O)c(S(N)(=O)=O)c1 [C-1523-1a, (E)-N-(4-(4-(3-isopropylthioureido)-2-sulfamoylstyryl)-3-sulfamoylphenyl)acetamide]
- AUC ([5]; Sprague Dawley, rat, plasma, single intravenous injection 1 milligram per kilogram): 971 ng·h/mL
- half-life ([5]; Sprague Dawley, rat, plasma, single intravenous injection 1 milligram per kilogram, PBS with 5% DMSO): 1.5 h
- Vd ([5]; Sprague Dawley, rat, plasma, single intravenous injection 1 milligram per kilogram, read-out: Vss): 0.29 L/kg
- Oral availability ([5]; oral gavage 2 milligrams per kilogram): 2-3%
- half-life [6]: ~6 h
- potency and selectivity for AID+ cells (cell viability) [7]: surprisingly potent and selective for AID+ cells
- concentration below which response is consistent [8]: below 10 nM
- tumors [9]: successfully reduced tumors
- acute toxicity (in vivo): almost no acute toxicity
- tolerance to prolonged drug exposure (single and multiple dose): excellent tolerance

Compound: disodium (E)-((5- acetamido-2-(2-(N- isobutyrylsulfamoyl)-4- (3-isopropylthioureido) styryl)phenyl)sulfonyl) (isobutyryl)amide [C-1523-1AD4]
- sensitivity (cell survival) [10]: sensitive
